Source: PMC9669179 (Epilepsia, 2022)
Like-named read-outs stand apart in the source and are kept apart here.

How the values were obtained:
[1] = CF-1, mouse, in vivo
[2] = in vivo; conditions: Sprague Dawley, rat, ip
[3] = tested on: adult Sprague-Dawley rats; conditions: rat, MES, i.p.; cited from earlier work
[4] = Sprague Dawley, rat, in vivo
[5] = CF-1, mouse, in vivo; remark: listed apart in the source
[6] = tested on: adult CF-1 mice; conditions: mouse, MES, i.p.; cited from earlier work
[7] = tested on: rats; conditions: rat, cited from earlier work
[8] = rat, in vivo
[9] = in vivo; conditions: Sprague Dawley, rat, ip; remark: listed apart in the source
[10] = tested on: adult CF-1 mice; assay: Maximal electroshock; assay type: in vivo, mouse; conditions: MES
[11] = tested on: mice; conditions: mouse, cited from earlier work
[12] = in vivo; conditions: CF-1, mouse, ip
[13] = tested on: adult Sprague-Dawley rats; assay: Maximal electroshock; assay type: in vivo, rat; conditions: MES; for Efficacy in rats (number seizure protected /number tested): low dose i.p. (CLB 17, CBZ 3, VPA 165 mg/kg)
[14] = in vivo; conditions: CF-1, mouse, ip; remark: listed apart in the source
[15] = tested on: adult male CF-1 mice; conditions: mouse, 6 Hz 44 mA, i.p.; cited from earlier work
[16] = Plasma pharmacokinetics in mice; conditions: CF-1, mouse, in vivo, ip
[17] = Brain pharmacokinetics in rats; conditions: rat
[18] = Plasma pharmacokinetics in rats; conditions: Sprague Dawley, rat, in vivo, ip
[19] = Brain pharmacokinetics in mice
[20] = tested on: adult male CF-1 mice; assay: 6 Hz 44 mA seizure test in mice; assay type: in vivo, mouse
[21] = low dose i.p.: CLB 17, CBZ 3, VPA 165, LEV 14 mg/kg
[22] = mouse, low dose i.p.: CLB 7, CBZ 7, VPA 260, LEV 20 mg/kg

NC(=O)N1c2ccccc2C=Cc2ccccc21 [CBZ, carbamazepine]
Brain Dose Prop (AUC) [1]: 1.64
Brain t1/2 ([1]; ip): 59.4 min
Tmax [2]: 15 min
half-life ([2]; Brain t1/2): 46.2 min
ED50 - low dose [3]: 3 mg/kg
Brain Dose Prop (AUC) [4]: 1.89
Brain t1/2 ([4]; ip): 72 min
High-dose exposures greater than expected from low-dose [5]: 50 - 60%
Plasma Dose Prop (AUC) [5]: 1.49
Plasma Dose Prop (Cmax) [5]: 0.917
Plasma t1/2 ([5]; ip): 66.6 min
ED50 - low dose [6]: 7 mg/kg
TD50 - high dose ([7]; in vivo, ip): 24 mg/kg
Plasma Dose Prop (AUC) ([8]; Sprague Dawley): 2.29
Plasma Dose Prop (Cmax) ([8]; Sprague Dawley): 1.138
Plasma t1/2 ([8]; Sprague Dawley, ip): 70.8 min
High-dose concentrations relative to expected from low-dose [8]: approximately two-fold
Tmax [9]: 15 min
half-life ([9]; Plasma t1/2): 49.2 min
Efficacy in mice (number seizure protected/number tested) ([10]; high dose i.p. (CBZ 40 mg/kg), time test 0.25 h): 4/4
Efficacy in mice (number seizure protected/number tested) ([10]; high dose i.p. (CBZ 40 mg/kg), time test 0.5 h): 4/4
Efficacy in mice (number seizure protected/number tested) ([10]; high dose i.p. (CBZ 40 mg/kg), time test 1 h): 4/4
Efficacy in mice (number seizure protected/number tested) ([10]; high dose i.p. (CBZ 40 mg/kg), time test 2 h): 4/4
Efficacy in mice (number seizure protected/number tested) ([10]; high dose i.p. (CBZ 40 mg/kg), time test 4 h): 4/4
Efficacy in mice (number seizure protected/number tested) ([10]; high dose i.p. (CBZ 40 mg/kg), time test 8 h): 0/4
Efficacy in mice (number seizure protected/number tested) ([10]; low dose i.p. (CBZ 7 mg/kg), time test 0.25 h): 3/4
Efficacy in mice (number seizure protected/number tested) ([10]; low dose i.p. (CBZ 7 mg/kg), time test 0.5 h): 3/4
Efficacy in mice (number seizure protected/number tested) ([10]; low dose i.p. (CBZ 7 mg/kg), time test 1 h): 2/4
Efficacy in mice (number seizure protected/number tested) ([10]; low dose i.p. (CBZ 7 mg/kg), time test 2 h): 0/4
Efficacy in mice (number seizure protected/number tested) ([10]; low dose i.p. (CBZ 7 mg/kg), time test 4 h): 0/4
Efficacy in mice (number seizure protected/number tested) ([10]; low dose i.p. (CBZ 7 mg/kg), time test 8 h): 0/4
Seizure protection (in words) ([10]; mice, high dose CBZ 40 mg/kg i.p.): complete protection
TD50 - high dose ([11]; in vivo, ip): 40 mg/kg
Tmax [12]: 15 min
half-life ([12]; Plasma t1/2): 78 min
Efficacy in rats (number seizure protected /number tested) ([13]; time test 0.25 h): 1/4
Efficacy in rats (number seizure protected /number tested) ([13]; time test 0.5 h): 1/4
Efficacy in rats (number seizure protected /number tested) ([13]; time test 1 h): 0/4
Efficacy in rats (number seizure protected /number tested) ([13]; time test 2 h): 0/4
Efficacy in rats (number seizure protected /number tested) ([13]; time test 4 h): 0/4
Efficacy in rats (number seizure protected /number tested) ([13]; time test 8 h): 0/4
Period for which 100% seizure protection was sustained ([13]; rats, high-dose CBZ i.p.): ~ 2 hrs
Seizure protection ([13]; rats, high-dose CBZ i.p.): 100%
Seizure protection (% protected) ([13]; rats, low-dose CBZ i.p., within the first hour): 25%
Tmax [14]: 15 min
half-life ([14]; Brain t1/2): 31.2 min

CN1C(=O)CC(=O)N(c2ccccc2)c2cc(Cl)ccc21 [CLB, Clobazam]
ED50 - low dose [15]: 7 mg/kg
Tmax [16]: 15 min
ED50 - low dose [3]: 17 mg/kg
Tmax ([17]; Sprague Dawley, in vivo, ip): 15 min
Brain AUC (0-8 hr) [17, 21]: 2.88 ng·h/mg
Brain Cmax [17, 21]: 2.90 ng/mg
Brain Cmin [17, 21]: 0.027 ng/mg
Tmax [18]: 15 min
TD50 - high dose ([7]; minimum motor impairment test, i.p.): 37 mg/kg
Tmax ([19]; CF-1, mouse, in vivo, ip): 15 min
Brain AUC (0-8 hr) [19, 22]: 1.74 ng·h/mg
Brain Cmax [19, 22]: 2.26 ng/mg
Brain Cmin [19, 22]: 0.014 ng/mg
TD50 - high dose ([11]; rotarod test, i.p.): 17 mg/kg
Efficacy in rats (number seizure protected /number tested) ([13]; time test 0.25 h): 0/4
Efficacy in rats (number seizure protected /number tested) ([13]; time test 0.5 h): 0/4
Efficacy in rats (number seizure protected /number tested) ([13]; time test 1 h): 0/4
Efficacy in rats (number seizure protected /number tested) ([13]; time test 2 h): 0/4
Efficacy in rats (number seizure protected /number tested) ([13]; time test 4 h): 0/4
Efficacy in rats (number seizure protected /number tested) ([13]; time test 8 h): 0/4
Seizure protection (in words) ([13]; rats, high dose i.p. (CLB 37, VPA 315 mg/kg)): seizure protection was observed within the first hour
Seizure protection (in words) ([13]; rats, low dose i.p. (CLB 17, VPA 165 mg/kg)): did not protect
Efficacy in mice (number seizure protected/number tested) ([20]; high dose i.p. (CLB 17, VPA 570, LEV 500 mg/kg), time test 0.25 h): 4/4
Efficacy in mice (number seizure protected/number tested) ([20]; high dose i.p. (CLB 17, VPA 570, LEV 500 mg/kg), time test 0.5 h): 4/4
Efficacy in mice (number seizure protected/number tested) ([20]; high dose i.p. (CLB 17, VPA 570, LEV 500 mg/kg), time test 1 h): 3/4
Efficacy in mice (number seizure protected/number tested) ([20]; high dose i.p. (CLB 17, VPA 570, LEV 500 mg/kg), time test 2 h): 3/4
Efficacy in mice (number seizure protected/number tested) ([20]; high dose i.p. (CLB 17, VPA 570, LEV 500 mg/kg), time test 4 h): 1/4
Efficacy in mice (number seizure protected/number tested) ([20]; high dose i.p. (CLB 17, VPA 570, LEV 500 mg/kg), time test 8 h): 0/4
Efficacy in mice (number seizure protected/number tested) ([20]; low dose i.p. (CLB 7, VPA 260, LEV 20 mg/kg), time test 0.25 h): 2/4
Efficacy in mice (number seizure protected/number tested) ([20]; low dose i.p. (CLB 7, VPA 260, LEV 20 mg/kg), time test 0.5 h): 1/4
Efficacy in mice (number seizure protected/number tested) ([20]; low dose i.p. (CLB 7, VPA 260, LEV 20 mg/kg), time test 1 h): 3/4
Efficacy in mice (number seizure protected/number tested) ([20]; low dose i.p. (CLB 7, VPA 260, LEV 20 mg/kg), time test 2 h): 0/4
Efficacy in mice (number seizure protected/number tested) ([20]; low dose i.p. (CLB 7, VPA 260, LEV 20 mg/kg), time test 4 h): 0/4
Efficacy in mice (number seizure protected/number tested) ([20]; low dose i.p. (CLB 7, VPA 260, LEV 20 mg/kg), time test 8 h): 0/4
